In patent US7902226B2, “Dehalogeno-compounds” (Daiichi Pharmaceutical Co., Ltd., priority 2000, dated 2011):
Values after ≈ are worked out from the molar mass of the structure shown. Counter-ions that a name gives are not always drawn. One block for each compound: values may come before it.

Key:
Pr. vulgalis, 08601 = test: Antibacterial activity (MIC), standard method of the Japan Society of Chemotherapy; assay type: cell-based
Protocol: (§1) Antibacterial activities of the compounds of this invention were measured in accordance to the standard method designated by the Japan Society of Chemotherapy, with the results shown as MIC values (microgram/ml) units in the following table. For comparison with the MIC values of the compounds of this invention, MIC values of levofloxacin (LVFX), ciprofloxacin (CPFX) and 7-[3-(R)-(1-aminocyclopropyl)pyrrolidin-1-yl]-6-fluoro-1-[2-(S)-fluoro-1-(R)-cyclopropyl]-8-methyl-1,4-dihydro-4-oxoquinoline-3-carboxylic acid (Reference drug 1), which is described in PCT/JP96/00208, are also shown in the table.

S. epidermidis, 56500 = test: as above; assay type: cell-based; details: Staphylococcus epidermidis
Protocol: as §1

S. flexneri, 2A 5503 = test: as above; assay type: cell-based; details: Shigella flexneri, 2A5503
Protocol: as §1

K. pneumoniae, Type 1 = test: as above; assay type: cell-based; details: Klebsiella pneumoniae, TYPE1
Protocol: as §1

S. aureus, 870307 = test: as above; assay type: cell-based; details: Staphylococcus aureus
Protocol: as §1

S. aureus, 209P = test: as above; assay type: cell-based; details: Staphylococcus aureus
Protocol: as §1

Ps. aeruginosa, 32104 = test: as above; assay type: cell-based; details: Pseudomonas aeruginosa
Protocol: as §1

Str. pneumoniae J24 = test: as above; assay type: cell-based; details: Streptococcus pneumoniae
Protocol: as §1

[1] = test system: Str. faecalis, ATCC 19433; test: as above; assay type: cell-based; details: Enterococcus faecalis, ATCC19433
Protocol: as §1

Ps. aeruginosa, 32121 = test: as above; assay type: cell-based; details: Pseudomonas aeruginosa
Protocol: as §1

[2] = test system: Ps. maltophilia, IID-1275; test: as above; assay type: cell-based; details: Stenotrophomonas maltophilia, IID1275
Protocol: as §1

Ser. marcescens, 10100 = test: as above; assay type: cell-based; details: Serratia marcescens
Protocol: as §1

E. coli, NIHJ = test: as above; assay type: cell-based; details: Escherichia coli
Protocol: as §1

Str. pyogenes, G-36 = test: as above; assay type: cell-based; details: Streptococcus pyogenes, G36
Protocol: as §1

SMILES: CCNC1([C@@H]2CCN(c3ccc4c(=O)c(C(=O)O)cn([C@@H]5C[C@@H]5F)c4c3C)C2)CC1 [Example 14, 7-[3-(R)-[1-(ethylamino)cyclopropyl]pyrrolidin-1-yl]-1-[2-(S)-fluoro-1-(R)-cyclopropyl]-8-methyl-1,4-dihydro-4-oxoquinoline-3-carboxylic acid]
MIC (Pr. vulgalis, 08601): 0.012 µg/mL (≈ 0.029 µM) | MIC (S. epidermidis, 56500): 0.006 µg/mL (≈ 0.0145 µM) | MIC (S. flexneri, 2A 5503): 0.006 µg/mL (≈ 0.0145 µM) | MIC (K. pneumoniae, Type 1): 0.05 µg/mL (≈ 0.121 µM) | MIC (S. aureus, 870307): 0.012 µg/mL (≈ 0.029 µM) | MIC (S. aureus, 209P): ≤ 0.003 µg/mL | MIC (Ps. aeruginosa, 32104): 0.1 µg/mL (≈ 0.242 µM) | MIC (Str. pneumoniae J24): ≤ 0.003 µg/mL | MIC [1]: 0.025 µg/mL (≈ 0.0605 µM) | MIC (Ps. aeruginosa, 32121): 0.05 µg/mL (≈ 0.121 µM) | MIC [2]: 0.2 µg/mL (≈ 0.484 µM) | MIC (Ser. marcescens, 10100): 0.1 µg/mL (≈ 0.242 µM) | MIC (E. coli, NIHJ): ≤ 0.003 µg/mL | MIC (Str. pyogenes, G-36): ≤ 0.003 µg/mL | melting point: 191 to 194 °C

melting point: 249 to 252 °C (dec.)
SMILES: C[C@H]1COc2c(N3CC[C@@H](C4(N)CC4)C3)ccc3c(=O)c(C(=O)O)cn1c23 (as salt: salt) [Example 9, 10-[3-(R)-(1-aminocyclopropyl)pyrrolidin-1-yl]-2,3-dihydro-3-(S)-methyl-7-oxo-7H-pyrido[1,2,3-de][1,4]benzoxazine-6-carboxylic acid]

SMILES: Cc1c(N2CC[C@@H](C3(N)CC3)C2)ccc2c(=O)c(C(=O)O)cn([C@@H]3C[C@@H]3F)c12 (as salt: HCl) (hydrate or solvate) [Example 1, 7-[3-(R)-(1-aminocyclopropyl)pyrrolidin-1-yl]-1-[2-(S)-fluoro-1-(R)-cyclopropyl]-1,4-dihydro-8-methyl-4-oxoquinoline-3-carboxylic acid]
melting point: 228 to 230 °C

melting point: 227 to 229 °C
SMILES: CNC1([C@@H]2CCN(c3ccc4c(=O)c(C(=O)O)cn5c4c3OC[C@@H]5C)C2)CC1 [Example 13, 2,3-dihydro-3-(S)-methyl-10-[3-(R)-[1-(methylamino)cyclopropyl]pyrrolidin-1-yl]-7-oxo-7H-pyrido[1,2,3-de][1,4]benzoxazine-6-carboxylic acid]

melting point: 138 to 140 °C
SMILES: N#Cc1c(N2CC[C@@H](C3(N)CC3)C2)ccc2c(=O)c(C(=O)O)cn([C@@H]3C[C@@H]3F)c12 [Example 18, 7-[3-(R)-(1-aminocyclopropyl)pyrrolidin-1-yl]-8-cyano-1-[2-(S)-fluoro-1-(R)-cyclopropyl]-1,4-dihydro-4-oxoquinoline-3-carboxylic acid]

SMILES: C[C@H]1COc2c(N3CCN(C)CC3)c(F)cc3c(=O)c(C(=O)O)cn1c23 [LVFX, levofloxacin, reference compound]
MIC (Pr. vulgalis, 08601): 0.012 µg/mL (≈ 0.0332 µM) | MIC (S. epidermidis, 56500): 0.39 µg/mL (≈ 1.08 µM) | MIC (S. flexneri, 2A 5503): 0.025 µg/mL (≈ 0.0692 µM) | MIC (K. pneumoniae, Type 1): 0.1 µg/mL (≈ 0.277 µM) | MIC (S. aureus, 870307): > 6.25 µg/mL | MIC (S. aureus, 209P): 0.2 µg/mL (≈ 0.553 µM) | MIC (Ps. aeruginosa, 32104): 0.2 µg/mL (≈ 0.553 µM) | MIC (Str. pneumoniae J24): 0.78 µg/mL (≈ 2.16 µM) | MIC [1]: 0.78 µg/mL (≈ 2.16 µM) | MIC (Ps. aeruginosa, 32121): 0.1 µg/mL (≈ 0.277 µM) | MIC [2]: 0.39 µg/mL (≈ 1.08 µM) | MIC (Ser. marcescens, 10100): 0.1 µg/mL (≈ 0.277 µM) | MIC (E. coli, NIHJ): 0.012 µg/mL (≈ 0.0332 µM) | MIC (Str. pyogenes, G-36): 0.2 µg/mL (≈ 0.553 µM)

melting point: 128 to 130 °C
SMILES: NC1([C@@H]2CCN(c3ccc4c(=O)c(C(=O)O)cn([C@@H]5C[C@@H]5F)c4c3Cl)C2)CC1 [Example 16, 7-[3-(R)-(1-aminocyclopropyl)pyrrolidin-1-yl]-8-chloro-1-[2-(S)-fluoro-1-(R)-cyclopropyl]-1,4-dihydro-4-oxoquinoline-3-carboxylic acid]

melting point: 174 °C
SMILES: COc1c(N2CC[C@@H](C3(N)CCC3)C2)ccc2c(=O)c(C(=O)O)cn([C@@H]3C[C@@H]3F)c12 (hydrate or solvate) [Example 19, 7-[3-(R)-(1-aminocyclobutyl)pyrrolidin-1-yl]-1-[2-(S)-fluoro-1-(R)-cyclopropyl]-8-methoxy-1,4-dihydro-4-oxoquinoline-3-carboxylic acid]

SMILES: O=C(O)c1cn(C2CC2)c2cc(N3CCNCC3)c(F)cc2c1=O [CPFX, ciprofloxacin, reference compound]
MIC (Pr. vulgalis, 08601): ≤ 0.003 µg/mL | MIC (S. epidermidis, 56500): 0.2 µg/mL (≈ 0.604 µM) | MIC (S. flexneri, 2A 5503): 0.006 µg/mL (≈ 0.0181 µM) | MIC (K. pneumoniae, Type 1): 0.025 µg/mL (≈ 0.0754 µM) | MIC (S. aureus, 870307): 3.13 µg/mL (≈ 9.45 µM) | MIC (S. aureus, 209P): 0.1 µg/mL (≈ 0.302 µM) | MIC (Ps. aeruginosa, 32104): 0.005 µg/mL (≈ 0.0151 µM) | MIC (Str. pneumoniae J24): 0.1 µg/mL (≈ 0.302 µM) | MIC [1]: 0.78 µg/mL (≈ 2.35 µM) | MIC (Ps. aeruginosa, 32121): 0.025 µg/mL (≈ 0.0754 µM) | MIC [2]: 0.78 µg/mL (≈ 2.35 µM) | MIC (Ser. marcescens, 10100): 0.025 µg/mL (≈ 0.0754 µM) | MIC (E. coli, NIHJ): ≤ 0.003 µg/mL | MIC (Str. pyogenes, G-36): 1.56 µg/mL (≈ 4.71 µM)

melting point: 203 to 206 °C
SMILES: Cc1c(N2CC[C@@H](C3(N)CC3)C2)cc(O)c2c(=O)c(C(=O)O)cn([C@@H]3C[C@@H]3F)c12 [Example 17, 7-[3-(R)-(1-aminocyclopropyl)pyrrolidin-1-yl]-1-[2-(S)-fluoro-1-(R)-cyclopropyl]-5-hydroxy-8-methyl-1,4-dihydro-4-oxoquinoline-3-carboxylic acid]

melting point: 172 to 178 °C (dec.)
SMILES: COc1c(N2CC[C@@H](C3(N)CC3)C2)cc(N)c2c(=O)c(C(=O)O)cn([C@@H]3C[C@@H]3F)c12 [Example 8, 5-amino-7-[3-(R)-(1-aminocyclopropyl)pyrrolidin-1-yl]-1-[2-(S)-fluoro-1-(R)-cyclopropyl]-1,4-dihydro-8-methoxy-4-oxoquinoline-3-carboxylic acid]

melting point: 240 to 242 °C (dec.)
SMILES: Cc1c(N2CC[C@@H](C3(N)CC3)C2)cc(N)c2c(=O)c(C(=O)O)cn([C@@H]3C[C@@H]3F)c12 [Example 7, 5-amino-7-[3-(R)-(1-aminocyclopropyl)pyrrolidin-1-yl]-1-[2-(S)-fluoro-1-(R)-cyclopropyl]-1,4-dihydro-8-methyl-4-oxoquinoline-3-carboxylic acid]

SMILES: COc1c(N2CC[C@@H](C3(N)CC3)C2)ccc2c(=O)c(C(=O)O)cn([C@@H]3C[C@@H]3F)c12 [Example 2, 7-[3-(R)-(1-aminocyclopropyl)pyrrolidin-1-yl]-1-[2-(S)-fluoro-1-(R)-cyclopropyl]-1,4-dihydro-8-methoxy-4-oxoquinoline-3-carboxylic acid]
MIC (Pr. vulgalis, 08601): 0.012 µg/mL (≈ 0.0299 µM) | MIC (S. epidermidis, 56500): 0.012 µg/mL (≈ 0.0299 µM) | MIC (S. flexneri, 2A 5503): 0.012 µg/mL (≈ 0.0299 µM) | MIC (K. pneumoniae, Type 1): 0.05 µg/mL (≈ 0.125 µM) | MIC (S. aureus, 870307): 0.05 µg/mL (≈ 0.125 µM) | MIC (S. aureus, 209P): ≤ 0.003 µg/mL | MIC (Ps. aeruginosa, 32104): 0.2 µg/mL (≈ 0.498 µM) | MIC (Str. pneumoniae J24): 0.006 µg/mL (≈ 0.0149 µM) | MIC [1]: 0.025 µg/mL (≈ 0.0623 µM) | MIC (Ps. aeruginosa, 32121): 0.05 µg/mL (≈ 0.125 µM) | MIC [2]: 0.2 µg/mL (≈ 0.498 µM) | MIC (Ser. marcescens, 10100): 0.1 µg/mL (≈ 0.249 µM) | MIC (E. coli, NIHJ): ≤ 0.003 µg/mL | MIC (Str. pyogenes, G-36): 0.006 µg/mL (≈ 0.0149 µM)

melting point: 251 to 253 °C
SMILES: NC1([C@@H]2CCN(c3ccc4c(=O)c(C(=O)O)cn([C@@H]5C[C@@H]5F)c4c3)C2)CC1 [Example 5, 7-[3-(R)-(1-aminocyclopropyl)pyrrolidin-1-yl]-1-[2-(S)-fluoro-1-(R)-cyclopropyl]-1,4-dihydro-4-oxoquinoline-3-carboxylic acid]

melting point: 216 to 218 °C
SMILES: NC1([C@@H]2CCN(c3ccc4c(=O)c(C(=O)O)cn([C@@H]5C[C@@H]5F)c4n3)C2)CC1 [Example 4, 7-[3-(R)-(1-aminocyclopropyl)pyrrolidin-1-yl]-1-[2-(S)-fluoro-1-(R)-cyclopropyl]-1,4-dihydro-4-oxo-1,8-naphthylidine-3-carboxylic acid]

melting point: 206 to 207.5 °C
SMILES: NC1([C@@H]2CCN(c3ccc4c(=O)c(C(=O)O)cn(C5CC5)c4c3OC(F)F)C2)CC1 [Example 6, 7-[3-(R)-(1-aminocyclopropyl)pyrrolidin-1-yl]-1-cyclopropyl-8-difluoromethoxy-1,4-dihydro-4-oxoquinoline-3-carboxylic acid]
